Laboratory results taken from ChEMBL document CHEMBL1131216, “Anhydrolide macrolides. 2. Synthesis and antibacterial activity of 2,3-anhydro-6-O-methyl 11,12-carbazate erythromycin A analogues” (1998).
In brackets after ≈: the same amount, converted by molar mass.

Columns and labels:
Assay type in all cases: functional
[1] = test system: Haemophilus influenzae; experiment: In vitro antibacterial activity of DILL strain of Gram negative bacteria Haemophilus influenzae
[2] = test system: Streptococcus pneumoniae; experiment: In vitro antibacterial activity of 5649 strain of Gram positive bacteria Streptococcus pneumoniae
[3] = test system: Streptococcus pneumoniae; experiment: In vitro antibacterial activity of 5979 strain of Gram positive bacteria Streptococcus pneumoniae
[4] = test system: Streptococcus pneumoniae; experiment: In vitro antibacterial activity of ATCC 6303 strain of Gram positive bacteria Streptococcus pneumoniae
[5] = test system: Staphylococcus aureus; experiment: In vitro antibacterial activity of A5177 strain of Gram positive bacteria Staphylococcus aureus
[6] = test system: Streptococcus pyogenes; experiment: In vitro antibacterial activity of 930 strain of Gram positive bacteria Streptococcus pyogenes
[7] = test system: Streptococcus pyogenes; experiment: In vitro antibacterial activity of EES61 strain of Gram positive bacteria Streptococcus pyogenes
[8] = test system: Streptococcus pyogenes; experiment: In vitro antibacterial activity of PIU2584 strain of Gram positive bacteria Streptococcus pyogenes
[9] = test system: Staphylococcus aureus; experiment: In vitro antibacterial activity of A-5278 strain of Gram positive bacteria Staphylococcus aureus
[10] = test system: Staphylococcus aureus; experiment: In vitro antibacterial activity of 6538P strain of Gram positive bacteria Staphylococcus aureus

Row | Compound | MIC [1] | MIC [2] | MIC [3] | MIC [4] | MIC [5] | MIC [6] | MIC [7] | MIC [8] | MIC [9] | MIC [10]
1 | CC[C@H]1OC(=O)/C(C)=C/[C@H](C)[C@@H](O[C@@H]2O[C@H](C)C[C@H](N(C)C)[C@H]2O)[C@@](C)(OC)C[C@@H](C)C(=O)[C@H](C)[C@H]2N(NCCc3ccc(Oc4ccccc4)cc3)C(=O)O[C@]12C | > 64 µg/mL | 2 µg/mL (≈ 2.48 µM) | 16 µg/mL (≈ 19.8 µM) | 0.25 µg/mL (≈ 0.309 µM) | 1.56 µg/mL (≈ 1.93 µM) | 8 µg/mL (≈ 9.9 µM) | 0.25 µg/mL (≈ 0.309 µM) | 2 µg/mL (≈ 2.48 µM) | 25 µg/mL (≈ 30.9 µM) | 1.56 µg/mL (≈ 1.93 µM)
2 | CC[C@H]1OC(=O)/C(C)=C/[C@H](C)[C@@H](O[C@@H]2O[C@H](C)C[C@H](N(C)C)[C@H]2O)[C@@](C)(OC)C[C@@H](C)C2=NN3C(=O)O[C@@]1(C)[C@H]3[C@H]2C | > 128 µg/mL | > 128 µg/mL | > 128 µg/mL | > 128 µg/mL | > 100 µg/mL | > 128 µg/mL | > 128 µg/mL | > 128 µg/mL | > 100 µg/mL | > 100 µg/mL
3 | CC[C@H]1OC(=O)/C(C)=C/[C@H](C)[C@@H](O[C@@H]2O[C@H](C)C[C@H](N(C)C)[C@H]2O)[C@@](C)(OC)C[C@@H](C)C(=O)[C@@H](C)[C@H]2N(NC/C=C/c3ccccc3)C(=O)O[C@]12C | > 64 µg/mL | 4 µg/mL (≈ 5.49 µM) | 16 µg/mL (≈ 22 µM) | 1 µg/mL (≈ 1.37 µM) | 6.2 µg/mL (≈ 8.52 µM) | 16 µg/mL (≈ 22 µM) | 4 µg/mL (≈ 5.49 µM) | 8 µg/mL (≈ 11 µM) | 50 µg/mL (≈ 68.7 µM) | 12.5 µg/mL (≈ 17.2 µM)
4 | CC[C@H]1OC(=O)/C(C)=C/[C@H](C)[C@@H](O[C@@H]2O[C@H](C)C[C@H](N(C)C)[C@H]2O)[C@@](C)(OC)C[C@@H](C)C(=O)[C@H](C)[C@H]2N(NCCCc3cccc(Cl)c3)C(=O)O[C@]12C | 32 µg/mL (≈ 41.9 µM) | 2 µg/mL (≈ 2.62 µM) | 32 µg/mL (≈ 41.9 µM) | 0.25 µg/mL (≈ 0.327 µM) | 0.39 µg/mL (≈ 0.51 µM) | 16 µg/mL (≈ 20.9 µM) | 0.25 µg/mL (≈ 0.327 µM) | 1 µg/mL (≈ 1.31 µM) | 50 µg/mL (≈ 65.4 µM) | 0.39 µg/mL (≈ 0.51 µM)
5 | CC[C@H]1OC(=O)/C(C)=C/[C@H](C)[C@@H](O[C@@H]2O[C@H](C)C[C@H](N(C)C)[C@H]2O)[C@@](C)(OC)C[C@@H](C)[C@@H]2NN3C(=O)O[C@@]1(C)[C@H]3[C@H]2C | > 128 µg/mL | > 128 µg/mL | > 128 µg/mL | > 128 µg/mL | > 100 µg/mL | > 128 µg/mL | > 128 µg/mL | > 128 µg/mL | > 100 µg/mL | > 100 µg/mL
6 | CC[C@H]1OC(=O)/C(C)=C/[C@H](C)[C@@H](O[C@@H]2O[C@H](C)C[C@H](N(C)C)[C@H]2O)[C@@](C)(OC)C[C@@H](C)C(=O)[C@H](C)[C@H]2N(NCc3cc(O)ccc3O)C(=O)O[C@]12C | 32 µg/mL (≈ 43.6 µM) | 2 µg/mL (≈ 2.73 µM) | 128 µg/mL (≈ 174 µM) | 0.25 µg/mL (≈ 0.341 µM) | 3.1 µg/mL (≈ 4.22 µM) | 128 µg/mL (≈ 174 µM) | 0.25 µg/mL (≈ 0.341 µM) | 4 µg/mL (≈ 5.45 µM) | > 100 µg/mL | 3.1 µg/mL (≈ 4.22 µM)
7 | CC[C@H]1OC(=O)/C(C)=C/[C@H](C)[C@@H](O[C@@H]2O[C@H](C)C[C@H](N(C)C)[C@H]2O)[C@@](C)(OC)C[C@@H](C)C(=O)[C@H](C)[C@H]2N(N)C(=O)O[C@]12C | 32 µg/mL (≈ 52.3 µM) | 1 µg/mL (≈ 1.63 µM) | > 64 µg/mL | 0.25 µg/mL (≈ 0.409 µM) | 1.56 µg/mL (≈ 2.55 µM) | > 64 µg/mL | 0.25 µg/mL (≈ 0.409 µM) | 1 µg/mL (≈ 1.63 µM) | > 100 µg/mL | 1.56 µg/mL (≈ 2.55 µM)

Now those with a lower MIC [1], led by results:

Row | MIC [1] | MIC [2] | MIC [3] | MIC [4] | MIC [5] | MIC [6] | MIC [7] | MIC [8] | MIC [9] | MIC [10] | Compound
8 | 16 µg/mL (≈ 20.9 µM) | 1 µg/mL (≈ 1.31 µM) | 32 µg/mL (≈ 41.9 µM) | 0.125 µg/mL (≈ 0.164 µM) | 0.2 µg/mL (≈ 0.262 µM) | 16 µg/mL (≈ 20.9 µM) | 0.03 µg/mL (≈ 0.0392 µM) | 1 µg/mL (≈ 1.31 µM) | 50 µg/mL (≈ 65.4 µM) | 0.2 µg/mL (≈ 0.262 µM) | CC[C@H]1OC(=O)/C(C)=C/[C@H](C)[C@@H](O[C@@H]2O[C@H](C)C[C@H](N(C)C)[C@H]2O)[C@@](C)(OC)C[C@@H](C)C(=O)[C@H](C)[C@H]2N(NCCCc3ccccc3Cl)C(=O)O[C@]12C
9 | 8 µg/mL (≈ 11.4 µM) | 1 µg/mL (≈ 1.42 µM) | > 128 µg/mL | 0.03 µg/mL (≈ 0.0427 µM) | 0.2 µg/mL (≈ 0.285 µM) | > 128 µg/mL | 0.03 µg/mL (≈ 0.0427 µM) | 0.5 µg/mL (≈ 0.711 µM) | > 100 µg/mL | 0.39 µg/mL (≈ 0.555 µM) | CC[C@H]1OC(=O)/C(C)=C/[C@H](C)[C@@H](O[C@@H]2O[C@H](C)C[C@H](N(C)C)[C@H]2O)[C@@](C)(OC)C[C@@H](C)C(=O)[C@H](C)[C@H]2N(NCc3ccncc3)C(=O)O[C@]12C
10 | 8 µg/mL (≈ 11.4 µM) | 1 µg/mL (≈ 1.42 µM) | > 64 µg/mL | 0.06 µg/mL (≈ 0.0855 µM) | 0.2 µg/mL (≈ 0.285 µM) | > 64 µg/mL | 0.03 µg/mL (≈ 0.0427 µM) | 1 µg/mL (≈ 1.42 µM) | > 100 µg/mL | 0.39 µg/mL (≈ 0.556 µM) | CC[C@H]1OC(=O)/C(C)=C/[C@H](C)[C@@H](O[C@@H]2O[C@H](C)C[C@H](N(C)C)[C@H]2O)[C@@](C)(OC)C[C@@H](C)C(=O)[C@H](C)[C@H]2N(NCc3ccccc3)C(=O)O[C@]12C
11 | 8 µg/mL (≈ 11 µM) | 1 µg/mL (≈ 1.37 µM) | 32 µg/mL (≈ 44 µM) | 0.03 µg/mL (≈ 0.0412 µM) | 0.1 µg/mL (≈ 0.137 µM) | 32 µg/mL (≈ 44 µM) | 0.06 µg/mL (≈ 0.0824 µM) | 0.5 µg/mL (≈ 0.687 µM) | 100 µg/mL (≈ 137 µM) | 0.02 µg/mL (≈ 0.0275 µM) | CC[C@H]1OC(=O)/C(C)=C/[C@H](C)[C@@H](O[C@@H]2O[C@H](C)C[C@H](N(C)C)[C@H]2O)[C@@](C)(OC)C[C@@H](C)C(=O)[C@H](C)[C@H]2N(NC/C=C/c3ccccc3)C(=O)O[C@]12C
12 | 8 µg/mL (≈ 10.3 µM) | 1 µg/mL (≈ 1.29 µM) | 128 µg/mL (≈ 165 µM) | 0.03 µg/mL (≈ 0.0387 µM) | 0.01 µg/mL (≈ 0.0129 µM) | 64 µg/mL (≈ 82.6 µM) | 0.03 µg/mL (≈ 0.0387 µM) | 0.5 µg/mL (≈ 0.645 µM) | > 100 µg/mL | 0.1 µg/mL (≈ 0.129 µM) | CC[C@H]1OC(=O)/C(C)=C/[C@H](C)[C@@H](O[C@@H]2O[C@H](C)C[C@H](N(C)C)[C@H]2O)[C@@](C)(OC)C[C@@H](C)C(=O)[C@H](C)[C@H]2N(NCCCc3ccccc3[N+](=O)[O-])C(=O)O[C@]12C
13 | 4 µg/mL (≈ 5.57 µM) | 1 µg/mL (≈ 1.39 µM) | > 128 µg/mL | 0.03 µg/mL (≈ 0.0418 µM) | 0.1 µg/mL (≈ 0.139 µM) | > 128 µg/mL | 0.03 µg/mL (≈ 0.0418 µM) | 0.5 µg/mL (≈ 0.696 µM) | > 100 µg/mL | 0.2 µg/mL (≈ 0.279 µM) | CC[C@H]1OC(=O)/C(C)=C/[C@H](C)[C@@H](O[C@@H]2O[C@H](C)C[C@H](N(C)C)[C@H]2O)[C@@](C)(OC)C[C@@H](C)C(=O)[C@H](C)[C@H]2N(NCc3cccc(O)c3)C(=O)O[C@]12C
14 | 4 µg/mL (≈ 5.27 µM) | 1 µg/mL (≈ 1.32 µM) | > 64 µg/mL | 0.125 µg/mL (≈ 0.165 µM) | 0.78 µg/mL (≈ 1.03 µM) | > 64 µg/mL | 0.03 µg/mL (≈ 0.0395 µM) | 2 µg/mL (≈ 2.64 µM) | > 100 µg/mL | 0.78 µg/mL (≈ 1.03 µM) | CC[C@H]1OC(=O)/C(C)=C/[C@H](C)[C@@H](O[C@@H]2O[C@H](C)C[C@H](N(C)C)[C@H]2O)[C@@](C)(OC)C[C@@H](C)C(=O)[C@H](C)[C@H]2N(NCc3ccc(NC(C)=O)cc3)C(=O)O[C@]12C
15 | 4 µg/mL (≈ 5.57 µM) | 1 µg/mL (≈ 1.39 µM) | > 128 µg/mL | 0.03 µg/mL (≈ 0.0418 µM) | 0.2 µg/mL (≈ 0.279 µM) | > 128 µg/mL | 0.03 µg/mL (≈ 0.0418 µM) | 1 µg/mL (≈ 1.39 µM) | > 100 µg/mL | 0.2 µg/mL (≈ 0.279 µM) | CC[C@H]1OC(=O)/C(C)=C/[C@H](C)[C@@H](O[C@@H]2O[C@H](C)C[C@H](N(C)C)[C@H]2O)[C@@](C)(OC)C[C@@H](C)C(=O)[C@H](C)[C@H]2N(NCc3ccc(O)cc3)C(=O)O[C@]12C
16 | 1 µg/mL (≈ 1.25 µM) | 0.5 µg/mL (≈ 0.627 µM) | 8 µg/mL (≈ 10 µM) | 0.004 µg/mL (≈ 0.00502 µM) | 0.05 µg/mL (≈ 0.0627 µM) | 2 µg/mL (≈ 2.51 µM) | 0.008 µg/mL (≈ 0.01 µM) | 0.25 µg/mL (≈ 0.314 µM) | > 100 µg/mL | 0.1 µg/mL (≈ 0.125 µM) | CC[C@H]1OC(=O)C(C)C(=O)[C@H](C)[C@@H](O[C@@H]2O[C@H](C)C[C@H](N(C)C)[C@H]2O)[C@@](C)(OC)C[C@@H](C)C(=O)[C@H](C)[C@H]2N(NCCCc3ccnc4ccccc34)C(=O)O[C@]12C (stereo not given in full)
